“Also recorded” adds a separate entry of the source.
How the values were obtained:
[1] = tested on: detached mammary epithelial cells; assay: Protrusions of detached mammary epithelial cells, general statements; format: cell-based, human and mouse
Description: Time-lapse video microscopy of detached mammary epithelial cells detected the extension of long, dynamic protrusions of the plasma membrane, and the present inventors have characterized the cytoskeletal mechanism underlying this novel observation. […] This response may be relatively short-lived, in specific embodiments, since mammary epithelial cells die by apoptosis within about 24 hours in suspension. However, cell lines that resist apoptosis through expression of either Bcl-2 or Bcl-xL will persistently form protrusions. Previous studies by the inventors indicate that such apoptotically-resistant cell lines will not form tumors in mice and lie dormant in distant tissues, in specific embodiments of the invention. […] These microtubule processes can extend more than 3 times the cell diameter, and undergo a rapid probing motion more than once per second. Formation of these microtubule protrusions is necessary for efficient cell-cell and cell-substratum attachment. In particular embodiments of the invention, this inherent microtubule response in detached mammary epithelial cells provides at least some of the invasive characteristics of breast cancer, independent of any tumor-specific genetic alteration, for example.
Breast tumor cells enter the bloodstream long before the development of clinically evident metastasis. However, the early presence of such bloodborne cells predicts poor patient outcome. Nearly 90% of human breast tumors arise as carcinomas from mammary epithelial cells, so it is important to characterize how these cells respond to the detached conditions that they would experience in the bloodstream. In the present invention, mammary epithelial cell lines produce long and dynamic protrusions of the plasma membrane when detached. Although human and mouse mammary epithelial cell lines die by apoptosis within 16 hours of detachment, this protrusive response persists for days in cells overexpressing either Bcl-2 or Bcl-xL, for example. […] Since bloodborne metastasis depends on both cell-cell and cell-matrix attachment, microtubule-based protrusions in detached mammary epithelial cells provide a novel target that could influence the metastatic spread of breast tumors.
Detachment-induced increases in Glu-tubulin could promote plasma membrane protrusions of microtubules by preventing efficient capture at the actin cortex. […] Therefore, our current model is that detachment increases stabilized microtubules enriched in Glu-tubulin, while decreased actin polymerization simply promotes extension of these microtubule protrusions.

EpH4 cells = assay: Protrusions in suspended cells treated with cytoskeletal inhibitors (EpH4); format: cell-based, mouse; conditions: EpH4, 15 minutes of suspension; Latrunculin-A 5 μM, Colchicine 1 μM
Description: (§1) In FIG. 2A, after 15 minutes of suspension, protrusions in EpH4 and MCF10A cells are quite small (Control, white arrows). […] In FIG. 2B, populations of live, suspended cells were scored blindly for two or more protrusions longer than the cell radius. Each bar represents the mean+S.D. for three experiments in which at least 100 single cells were counted.
EpH4 cells were suspended in either DMEM (Control) or media containing 5 μM Latrunculin-A (LA), 1 μM Colchicine or the combination of both drugs for 30 minutes. Cells were then spun onto glass coverslips and fluorescently stained for α-tubulin (green) and polymerized actin (red). Protrusions that are difficult to see by phase contrast are easily discernible with immunostaining for α-tubulin (white arrows). Protrusions contain little polymerized actin, except at points of concentration, which are often at the end (arrowhead).
EpH4 and B19 cells were suspended over 2% agarose coated plates to prevent attachment in either serum-free DMEM or media containing. Latrunculin-A (5 μM) to enhance protrusions. For co-staining of α-tubulin and actin, suspended cells were then centrifuged onto poly-L-lysine coated coverslips (280 g×5 min), fixed in 3.7% formaldehyde in PBS for 10 min, and permeablized with 0.1% Triton X-100 in PBS. Adhered cells were then stained for 1 hr at room temperature using FITC-conjugated anti-α-tubulin (1:200; Sigma), Alexa-594 phalloidin (1:100; Molecular Probes), and Hoescht 33342 (1:5000; Sigma).
(§2) In order to initially characterize the cytoskeletal mechanism underlying these protrusions, suspended cells were treated with inhibitors of actin and tubulin polymerization (FIG. 2). After 15 minutes of suspension, the protrusions in untreated EpH4 or MCF10A cells remain fairly short (FIG. 2, white arrows). These early protrusions can often be difficult to detect with phase-contrast microscopy, due to interfering light refraction from the plasma membrane. […] Protrusions were more easily visible with immunofluorescence than phase contrast microscopy (FIG. 3, white arrows). Although actin filament staining was generally low along the length of the protrusion, dense points of actin were often found at the end of protrusions (FIG. 3, arrowheads).

MCF10A cells [2] = assay: Protrusions in suspended cells treated with cytoskeletal inhibitors (MCF10A); format: cell-based, human; conditions: MCF10A, 15 minutes of suspension; Latrunculin-A 5 μM, Colchicine 1 μM
Description: as §1, §2
The nontumorigenic human mammary epithelial cell line (MCF10A) or the indicated human breast tumor cell lines were grown in suspension for 30-60 minutes, and protrusions were counted in random fields with phase-contrast microscopy. Values represent the mean±S.D. of three experiments in which at least 100 cells were counted. […] This effect was most apparent in the highly metastatic but exemplary Bt-474 and MDA-MB-231 cells (pictured, black arrows). The exemplary MCF10A cells show far fewer and shorter protrusions at the same time point (pictured, white arrows). Such protrusions are not observed in attached cells.

[3] = tested on: chicken erythrocytes from day 2 embryos; conditions: cited from earlier work
MCF10A cells [4] = assay: Chemical inhibition of Latrunculin-A-enhanced microtubule protrusions in suspended cells; format: cell-based, human
Description: MCF10A cells were placed into suspension in the presence of the indicated chemical inhibitors targeted at specific signaling pathways or the corresponding vehicle controls. Cells were then treated with the actin polymerization inhibitor, Latrunculin-A (LA, 5 μM) for one hour to enhance protrusions. […] Thus, protrusions can be reduced by chemical inhibition of specific signaling proteins.

cells = format: cell-based; conditions: indicated concentrations, 2 hours
Bt-474 = assay: GFP-membrane protrusion counts after local anesthetics (Bt-474); format: cell-based, human; conditions: Bt-474, GFP-membrane; Lidocaine 50 mM, Tetracaine 2.5 mM; with or without LA
Description: (§3) Cells were then suspended in DMEM culture media with or without […] Latrunculin-A (LA) to induce protrusions by depolymerizing actin. […] Bars represent mean+S.D. of at least three blindly counted experiments.

MDA-231 = assay: GFP-membrane protrusion counts after local anesthetics (MDA-231); format: cell-based, human; conditions: MDA-231, GFP-membrane; Lidocaine 50 mM, Tetracaine 2.5 mM; with or without LA
Description: as §3

MCF10A cells [5] = conditions: MCF10A treated two hours
metastasis = conditions: known, via unclear mechanism; cited from earlier work

Compound: C=C1[C@@H](C)[C@H]2[C@H](Cc3ccccc3)NC(=O)[C@]23[C@H](OC(C)=O)/C=C/[C@@](C)(O)C(=O)[C@@H](C)C/C=C/[C@H]3[C@@H]1O [Cytochalasin-D]
- protrusions [1]: enhanced; also recorded: promotes the extension of microtubule protrusions
- protrusions (EpH4 cells): increased protrusions
- protrusions (MCF10A cells [2]): increased protrusions
- microtubule processes [3]: promotes microtubule processes

Compound: Cn1sc(=O)n(Cc2ccccc2)c1=O [TDZD-8]
- protrusions (MCF10A cells [4]; MCF10A in suspension, then LA 5 μM one hour, sodium orthovanadate 1 mM, S-Trityl-L-Cysteine 100 μM, TDZD-8 20 μM): strongest inhibition of protrusions
- protrusion frequency (MCF10A cells [4]; one hour of treatment): reduce protrusion frequency significantly
- cell viability (cells): did not reduce cell viability significantly

Compound: CCCCNc1ccc(C(=O)OCCN(C)C)cc1 [Tetracaine]
- protrusions (Bt-474): inhibited significantly
- protrusions (MDA-231): inhibited significantly
- concentration showing significant cell toxicity (MCF10A cells [5]): ≥ 3000 µM
- cell toxicity (MCF10A cells [5]; Lidocaine up to 50 mM): cytotoxic
- metastasis (metastasis): reduce metastasis

Reference: patent US8193238B2, “Inhibition of microtubule protrusion in cancer cells” (University of Maryland, Baltimore, priority 2006, dated 2012)
